Tests used:
recombinant mTOR = recombinant mTOR (Homo sapiens (Human), UniProt P42345); test: mTOR kinase assay (33P incorporation into 4EBP1); format: biochemical; settings: compound at 10 μM, 10 μM ATP
Procedure, shortened: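 Recombinant human mTOR (50 ng) phosphorylated His-tagged 4EBP1 (300 ng) with 10 μM ATP plus [γ-33P]-ATP in HEPES pH 7.5, MnCl2, EGTA and DTT for 30 min at 30° C. Labelled 4EBP1 was filter-captured and counted. IC50 was derived from eight-point duplicate dilution series.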

PI3K (p110α/p85α) = PI3K (p110α/p85α) (Homo sapiens (Human), UniProt P42336); test: PI3K HTRF enzyme assay, p110α/p85α; format: biochemical; settings: read-out: % inhibition @ 500 nM p110α; compound at 500 nM, 10 μM ATP
PI3K (p110α/p85α), sequence (P42336 whole entry, species assumed): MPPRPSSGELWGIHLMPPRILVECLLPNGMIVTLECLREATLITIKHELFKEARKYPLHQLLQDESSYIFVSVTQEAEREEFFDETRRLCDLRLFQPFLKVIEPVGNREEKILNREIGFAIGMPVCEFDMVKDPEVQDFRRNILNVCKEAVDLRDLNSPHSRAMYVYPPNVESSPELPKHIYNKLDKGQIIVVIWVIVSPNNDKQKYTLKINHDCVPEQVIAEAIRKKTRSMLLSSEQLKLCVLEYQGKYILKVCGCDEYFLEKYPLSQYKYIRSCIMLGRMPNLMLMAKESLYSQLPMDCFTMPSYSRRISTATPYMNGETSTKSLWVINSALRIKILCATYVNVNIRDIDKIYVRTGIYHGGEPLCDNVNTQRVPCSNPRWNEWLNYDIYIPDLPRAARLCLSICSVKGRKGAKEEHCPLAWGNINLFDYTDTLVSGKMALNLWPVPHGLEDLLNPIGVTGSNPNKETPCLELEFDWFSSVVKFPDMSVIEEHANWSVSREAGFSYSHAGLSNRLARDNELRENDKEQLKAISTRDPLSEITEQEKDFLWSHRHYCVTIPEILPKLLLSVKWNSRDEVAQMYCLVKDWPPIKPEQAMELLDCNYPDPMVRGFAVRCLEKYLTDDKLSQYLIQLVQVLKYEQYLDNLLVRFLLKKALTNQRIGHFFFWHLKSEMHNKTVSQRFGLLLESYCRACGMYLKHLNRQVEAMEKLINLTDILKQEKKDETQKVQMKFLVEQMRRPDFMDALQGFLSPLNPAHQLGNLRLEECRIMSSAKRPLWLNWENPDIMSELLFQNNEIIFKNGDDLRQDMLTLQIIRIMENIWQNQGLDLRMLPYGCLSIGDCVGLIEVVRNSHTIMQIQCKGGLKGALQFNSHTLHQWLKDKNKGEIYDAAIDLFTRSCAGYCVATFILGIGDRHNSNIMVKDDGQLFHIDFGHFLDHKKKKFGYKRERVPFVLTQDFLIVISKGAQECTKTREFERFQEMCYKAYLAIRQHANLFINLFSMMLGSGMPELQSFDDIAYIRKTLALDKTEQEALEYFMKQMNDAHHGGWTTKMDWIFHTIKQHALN
PI3K (p110α/p85α), sequence (P27986 whole entry partner, species assumed): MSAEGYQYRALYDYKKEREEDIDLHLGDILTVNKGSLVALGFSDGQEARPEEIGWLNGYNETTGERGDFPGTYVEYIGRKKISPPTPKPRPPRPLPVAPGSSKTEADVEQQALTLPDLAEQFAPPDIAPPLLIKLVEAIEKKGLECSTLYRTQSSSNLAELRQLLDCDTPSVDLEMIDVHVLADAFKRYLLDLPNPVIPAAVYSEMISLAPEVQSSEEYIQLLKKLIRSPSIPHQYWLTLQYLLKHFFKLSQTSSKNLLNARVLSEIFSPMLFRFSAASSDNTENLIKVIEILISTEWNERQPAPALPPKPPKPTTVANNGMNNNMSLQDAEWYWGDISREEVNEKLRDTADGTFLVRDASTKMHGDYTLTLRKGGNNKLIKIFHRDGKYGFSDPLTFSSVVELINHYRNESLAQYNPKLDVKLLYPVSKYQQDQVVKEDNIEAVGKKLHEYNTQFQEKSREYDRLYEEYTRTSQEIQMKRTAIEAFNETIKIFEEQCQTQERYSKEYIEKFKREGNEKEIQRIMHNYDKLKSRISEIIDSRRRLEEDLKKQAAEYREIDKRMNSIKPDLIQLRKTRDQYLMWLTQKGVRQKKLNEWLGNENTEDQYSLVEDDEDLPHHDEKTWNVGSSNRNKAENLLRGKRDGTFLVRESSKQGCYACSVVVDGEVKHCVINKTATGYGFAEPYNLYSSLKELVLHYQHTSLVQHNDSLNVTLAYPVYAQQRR
Procedure, shortened: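 Recombinant PI3K heterodimers with PIP2 substrate; reactions ran 30 min at room temperature with 10 μM ATP for p110α/p85α and 100 μM ATP for p110β/p85α. After stop, HTRF detection followed 17 h incubation in the dark at room temperature; HTRF ratio used as read-out.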

A549 cells = test: Antiproliferation assay (MTS), A549; format: cell-based; settings: Homo sapiens; A549, 72 hours of drug treatment
PC-3 cells = test: Antiproliferation assay (MTS), PC-3; format: cell-based; settings: Homo sapiens, PC3, 72 hours of drug treatment
Protocol: (1) Antiproliferation Assay
PC-3, U-87 MG, HCC1954 and BT474 cell lines were purchased from the American Type Culture Collection (ATCC, USA). PC-3 was grown in F12K medium (GIBCO) containing 10% FBS. U-87 MG was grown in Eagle's minimum essential medium (MEM, Sigma) supplemented with nonessential amino acids, L-glutamine, sodium pyruvate, and 10% FBS. HCC1954 was grown in RPMI medium (GIBCO) containing 10% FBS. […] All cells were incubated in a humidified atmosphere containing 5% CO2 at 37° C.
Cell lines were inoculated to the wells of a 96-well culture plate with 1000-5000 cells per well. The compounds were prepared and used to treat cells with less than 1% DMSO. After 72 hours of drug treatment, the viability of each cell line was examined by CellTiter 96 Aqueous Non-Radioactive Cell Proliferation Assay (Promega). The living cells were detectable by conversion of MTS into aqueous, soluble formazan. MTS/PMS solution was freshly prepared and 20 μl of MTS/PMS solution was added to each well of the 96-well cultured plate. The assay plate was incubated for 3 hours and the absorbance at 490 nm was measured by EMax ELISA Reader (Molecular Devices). The IC50 values of compounds were determined after carrying out assays at eight serially diluted concentrations of each compound in triplicate, and are the mean of three separate determinations. The results were analyzed using linear regression software (GraphPad Prism 5; GraphPad Software Inc.).

recombinant mTOR, sequence (P42345 1360-2549): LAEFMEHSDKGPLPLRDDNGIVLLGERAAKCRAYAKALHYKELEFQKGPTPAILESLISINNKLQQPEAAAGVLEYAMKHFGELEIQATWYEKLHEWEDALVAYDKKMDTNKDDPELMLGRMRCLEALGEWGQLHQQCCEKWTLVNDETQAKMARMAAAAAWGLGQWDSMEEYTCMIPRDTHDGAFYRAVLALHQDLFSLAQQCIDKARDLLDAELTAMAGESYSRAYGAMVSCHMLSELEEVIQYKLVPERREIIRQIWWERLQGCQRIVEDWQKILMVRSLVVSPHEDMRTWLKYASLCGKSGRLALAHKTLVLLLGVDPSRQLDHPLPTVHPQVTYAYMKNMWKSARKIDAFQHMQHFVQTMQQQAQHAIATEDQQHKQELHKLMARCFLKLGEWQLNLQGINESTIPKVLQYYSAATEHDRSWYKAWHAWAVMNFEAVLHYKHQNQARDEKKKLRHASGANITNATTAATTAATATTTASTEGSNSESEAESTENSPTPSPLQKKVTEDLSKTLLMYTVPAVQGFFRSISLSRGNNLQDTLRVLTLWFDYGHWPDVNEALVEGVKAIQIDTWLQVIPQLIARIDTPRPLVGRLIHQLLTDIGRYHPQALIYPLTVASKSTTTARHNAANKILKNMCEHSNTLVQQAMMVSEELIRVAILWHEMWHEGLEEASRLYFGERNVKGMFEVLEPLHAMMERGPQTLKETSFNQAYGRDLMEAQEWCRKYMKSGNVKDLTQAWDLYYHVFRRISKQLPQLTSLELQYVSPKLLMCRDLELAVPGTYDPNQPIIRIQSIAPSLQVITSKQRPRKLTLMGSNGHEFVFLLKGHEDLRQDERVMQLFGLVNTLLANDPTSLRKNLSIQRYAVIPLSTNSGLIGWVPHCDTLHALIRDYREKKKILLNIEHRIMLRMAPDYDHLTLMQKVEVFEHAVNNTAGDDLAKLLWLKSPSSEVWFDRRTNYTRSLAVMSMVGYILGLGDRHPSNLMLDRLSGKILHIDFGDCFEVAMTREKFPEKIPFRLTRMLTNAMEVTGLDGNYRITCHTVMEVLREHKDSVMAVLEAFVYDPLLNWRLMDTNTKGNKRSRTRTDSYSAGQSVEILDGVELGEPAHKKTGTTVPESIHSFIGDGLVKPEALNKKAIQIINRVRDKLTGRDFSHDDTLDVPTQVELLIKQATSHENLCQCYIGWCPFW

| inhibition at 10 µM (recombinant mTOR) [%] | inhibition at 0.5 µM (PI3K (p110α/p85α)) [%] | IC50 (A549 cells) [nM] | IC50 (PC-3 cells) [nM] | SMILES |
| --- | --- | --- | --- | --- |
| 96 | 85.4 |  |  | CSc1c(OCCN(C)C)nc(-c2cccc(O)c2)nc1N1CCOCC1 [MTR-0043, 3-[4-(2-Dimethylamino-ethoxy)-5-methylsulfanyl-6-morpholin-4-yl-pyrimidin-2-yl]-phenol] |
| 92 | 60.9 |  |  | CSc1c(Cl)nc(-c2ccc(NC(=O)Nc3ccccc3)cc2)nc1N1CCOCC1 [MTR-0091, 1-[4-(4-Chloro-5-methylsulfanyl-6-morpholin-4-yl-pyrimidin-2-yl)-phenyl]-3-phenyl-urea] |
| 100 |  | 1360 ± 340 | 432 ± 20 | CCOc1c(C(=O)N2CCN(S(C)(=O)=O)CC2)nc(-c2ccc(NC(=O)Nc3ccccc3)cc2)nc1N1CCOCC1 [MTR-0145, 1-{4-[5-Ethoxy-4-(4-methanesulfonyl-piperazine-1-carbonyl)-6-morpholin-4-yl-pyrimidin-2-yl]-phenyl}-3-phenyl-urea] |
| 95 | 52.4 |  |  | CCOC(=O)c1nc(-c2ccc(NC(=O)Nc3cccc(F)c3)cc2)nc(N2CCOCC2)c1OCC [MTR-0147, 5-Ethoxy-2-{4-[3-(3-fluoro-phenyl)-ureido]-phenyl}-6-morpholin-4-yl-pyrimidine-4-carboxylic acid ethyl ester] |
| 95 | 102 |  |  | CSc1cnc(-c2ccc(NC(=O)Nc3ccccc3)cc2)nc1N1CCOCC1 [MTR-0162, 1-[4-(5-Methylsulfanyl-4-morpholin-4-yl-pyrimidin-2-yl)-phenyl]-3-phenyl-urea] |
| 91 | 84.7 |  |  | COc1cnc(-c2ccc(NC(=O)Nc3cccc(F)c3)cc2)nc1N1CCOCC1 [MTR-0164, 1-(3-Fluoro-phenyl)-3-[4-(5-methoxy-4-morpholin-4-yl-pyrimidin-2-yl)-phenyl]-urea] |
| 96 | 52.7 |  |  | CCOc1c(CN2CCN(S(C)(=O)=O)CC2)nc(-c2ccc(NC(=O)Nc3ccccc3)cc2)nc1N1CCOCC1 [MTR-0169, 1-{4-[5-Ethoxy-4-(4-methanesulfonyl-piperazin-1-ylmethyl)-6-morpholin-4-yl-pyrimidin-2-yl]-phenyl}-3-phenyl-urea] |
| 90 | 48.8 |  |  | CSc1cnc(-c2ccc(NC(=O)Nc3ccc(F)cc3)cc2)nc1N1CCOCC1 [MTR-0178, 1-(4-Fluoro-phenyl)-3-[4-(5-methylsulfanyl-4-morpholin-4-yl-pyrimidin-2-yl)-phenyl]-urea] |
| 96 | 41.1 |  |  | CSc1c(Cl)nc(-c2ccc(NC(=O)Nc3cccc(NC(C)=O)c3)cc2)nc1N1CCOCC1 [MTR-0270, N-(3-{3-[4-(4-Chloro-5-methylsulfanyl-6-morpholin-4-yl-pyrimidin-2-yl)-phenyl]-ureido}-phenyl)-acetamide] |
| 95 |  | 382 ± 23 | 126 ± 8 | CCOc1c(C(=O)N2CCOCC2)nc(-c2ccc(NC(=O)Nc3ccc(N4CCOCC4=O)cc3)cc2)nc1N1CCOCC1 [MTR-0280, 1-{4-[5-Ethoxy-4-(morpholine-4-carbonyl)-6-morpholin-4-yl-pyrimidin-2-yl]-phenyl}-3-[4-(3-oxo-morpholin-4-yl)-phenyl]-urea] |
| 95 |  | 614 ± 28 | 188 ± 6 | COc1cnc(-c2ccc(NC(=O)Nc3ccc(N)cc3)cc2)nc1N1CCOCC1 [MTR-0350, 1-(4-Amino-phenyl)-3-[4-(5-methoxy-4-morpholin-4-yl-pyrimidin-2-yl)-phenyl]-urea] |
| 97 |  | 598 ± 18 | 205 ± 6 | CSc1cnc(-c2ccc(NC(=O)Nc3cccc(NC(C)=O)c3)cc2)nc1N1CCOCC1 [MTR-0377, N-(3-{3-[4-(5-Methylsulfanyl-4-morpholin-4-yl-pyrimidin-2-yl)-phenyl]-ureido}-phenyl)-acetamide] |
| 89 | 47 | 460 ± 28 | 179 ± 14 | CCOc1cnc(-c2ccc(NC(=O)Nc3ccc(N4CCOCC4=O)cc3)cc2)nc1-c1ccncc1 [MTR-0398, 1-[4-(5-Ethoxy-4-pyridin-4-yl-pyrimidin-2-yl)-phenyl]-3-[4-(3-oxo-morpholin-4-yl)-phenyl]-urea] |
|  | 58.4 |  |  | COc1cnc(-c2ccc(NC(=O)Nc3cccc(NC(C)=O)c3)cc2)nc1N1CCOCC1 [MTR-0426, N-(3-{3-[4-(5-Methoxy-4-morpholin-4-yl-pyrimidin-2-yl)-phenyl]-ureido}-phenyl)-acetamide] |
|  | 71.1 |  |  | COc1cnc(-c2ccc(NC(=O)Nc3ccc(C(=O)NCCCN(C)C)cc3)cc2)nc1N1CCOCC1 [MTR-0427, N-(3-Dimethylamino-propyl)-4-{3-[4-(5-methoxy-4-morpholin-4-yl-pyrimidin-2-yl)-phenyl]-ureido}-benzamide] |
|  | 71.5 |  |  | CSc1c(Cl)nc(-c2ccc(NC(=O)Nc3ccc(C(=O)N4CCC(N(C)C)CC4)cc3)cc2)nc1N1CCOCC1 [MTR-0436, 1-[4-(4-Chloro-5-methylsulfanyl-6-morpholin-4-yl-pyrimidin-2-yl)-phenyl]-3-[4-(4-dimethylamino-piperidine-1-carbonyl)-phenyl]-urea] |
|  | 79.1 |  |  | CCOc1cnc(-c2ccc(NC(=O)Nc3ccc(NC(C)=O)nc3)cc2)nc1N1CCOCC1 [MTR-0442, N-(5-{3-[4-(5-Ethoxy-4-morpholin-4-yl-pyrimidin-2-yl)-phenyl]-ureido}-pyridin-2-yl)-acetamide] |
|  | 66.3 |  |  | CCOc1cnc(-c2ccc(NC(=O)Nc3ccncc3)cc2)nc1N1CCOCC1 [MTR-0446, 1-[4-(5-Ethoxy-4-morpholin-4-yl-pyrimidin-2-yl)-phenyl]-3-pyridin-4-yl-urea] |
|  | 75.4 |  |  | COc1cnc(-c2ccc(NC(=O)Nc3ccc(NS(C)(=O)=O)cc3)cc2)nc1N1CCOCC1 [MTR-0449, N-(4-{3-[4-(5-Methoxy-4-morpholin-4-yl-pyrimidin-2-yl)-phenyl]-ureido}-phenyl)-methanesulfonamide] |
|  | 74.4 |  |  | O=C(Nc1ccc(C(=O)N2CCOCC2)cc1)Nc1ccc(-c2ncc(OCCN3CCOCC3)c(N3CCOCC3)n2)cc1 [MTR-0454, 1-[4-(Morpholine-4-carbonyl)-phenyl]-3-{4-[4-morpholin-4-yl-5-(2-morpholin-4-yl-ethoxy)-pyrimidin-2-yl]-phenyl}-urea] |
|  | 48.9 |  |  | O=C(Nc1ccc(-c2ncc(OCCN3CCOCC3)c(N3CCOCC3)n2)cc1)Nc1ccc(N2CCOCC2=O)cc1 [MTR-0455, 1-{4-[4-Morpholin-4-yl-5-(2-morpholin-4-yl-ethoxy)-pyrimidin-2-yl]-phenyl}-3-[4-(3-oxo-morpholin-4-yl)-phenyl]-urea] |
|  | 52.6 |  |  | NC(=O)c1ccc(NC(=O)Nc2ccc(-c3ncc(OCCN4CCOCC4)c(N4CCOCC4)n3)cc2)cc1 [MTR-0456, 4-(3-{4-[4-Morpholin-4-yl-5-(2-morpholin-4-yl-ethoxy)-pyrimidin-2-yl]-phenyl}-ureido)-benzamide] |
|  | 47.4 |  |  | CSc1c(-c2cccnc2)nc(-c2ccc(NC(=O)Nc3ccc(N4CCOCC4=O)cc3)cc2)nc1N1CCOCC1 [MTR-0457, 1-[4-(5-Methylsulfanyl-4-morpholin-4-yl-6-pyridin-3-yl-pyrimidin-2-yl)-phenyl]-3-[4-(3-oxo-morpholin-4-yl)-phenyl]-urea] |
|  | 93.4 |  |  | CSc1cnc(-c2ccc(NC(=O)Nc3ccc(C(=O)N4CCOCC4)cc3)cc2)nc1N1CCOCC1 [MTR-0461, 1-[4-(5-Methylsulfanyl-4-morpholin-4-yl-pyrimidin-2-yl)-phenyl]-3-[4-(morpholine-4-carbonyl)-phenyl]-urea] |
|  | 67.9 |  |  | CSc1cnc(-c2ccc(NC(=O)Nc3ccncc3)cc2)nc1N1CCOCC1 [MTR-0462, 1-[4-(5-Methylsulfanyl-4-morpholin-4-yl-pyrimidin-2-yl)-phenyl]-3-pyridin-4-yl-urea] |
|  | 81.7 |  |  | CSc1c(Cl)nc(-c2ccc(NC(=O)Nc3ccncc3)cc2)nc1N1CCOCC1 [MTR-0469, 1-[4-(4-Chloro-5-methylsulfanyl-6-morpholin-4-yl-pyrimidin-2-yl)-phenyl]-3-pyridin-4-yl-urea] |

Reference: US9315491B2 (DEVELOPMENT CENTER FOR BIOTECHNOLOGY, priority 2009, dated 2016)
